Experimental data reported in patent US8518952B2, “6 substituted 2-heterocyclylamino pyrazine compounds as CHK-1 inhibitors” (Pfizer Inc., priority 2008, dated 2013).
Counter-ions that a name gives are not always drawn.

Assays:
CHK1 (kinase domain) = target: T1, CHK1 (kinase domain) (Homo sapiens, UniProt O14757); assay: CHK1 Ki determination, spectrophotometric coupled (pyruvate kinase/lactate dehydrogenase) assay; type: biochemical; settings: CHK-1 kinase domain; 150 uM ATP, 125 uM Syntide 2
T1 construct: a solution containing 1 nM of CHK1 (kinase domain)
T1 sequence (O14757 9-265 limits assumed): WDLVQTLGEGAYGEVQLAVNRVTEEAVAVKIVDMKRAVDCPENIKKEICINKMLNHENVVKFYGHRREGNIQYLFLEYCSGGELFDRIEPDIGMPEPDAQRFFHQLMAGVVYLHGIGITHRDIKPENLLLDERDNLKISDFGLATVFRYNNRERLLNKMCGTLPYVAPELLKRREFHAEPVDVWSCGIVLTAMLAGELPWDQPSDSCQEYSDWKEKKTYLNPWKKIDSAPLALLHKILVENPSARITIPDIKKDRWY
In short: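 The CHK1 kinase domain was pre-incubated with compound for 15 min, and the reaction was started with 125 uM Syntide 2 and 150 uM ATP. ADP formation was coupled through pyruvate kinase/lactate dehydrogenase to NADH oxidation, read as the A340 decrease. Kiapp was fitted with a tight-binding equation that accounts for enzyme concentration and ATP Km; some entries are % inhibition.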

Mia Paca-2 cells = assay: Histone H3 (Ser10) phosphorylation ELISA, abrogation of camptothecin-induced G2 arrest (CHK-1 cellular assay); type: cell-based; settings: camptothecin 8 hrs, then compound with nocodozole 16 hours
Protocol: The Histone H3 phosphorylation ELISA assay detects cells entering mitosis and represents the primary in vitro cell-based assay used to measure the cellular potency of compounds in abrogating the G2 check point induced by DNA damage in HeLa cells or MiaPaCa cells. The candidate substances were assayed for potency in their ability to inhibit camptothecin-induced G2 arrest, as measured by an increase in Histone H3 phosphorylation on Ser10, a marker of entry into mitosis.
The PathScan Phospho-Histone H3 (Ser10) Sandwich ELISA kit was used (Cell Signaling, #7155) and the assay was performed according to manufacturer recommendations. Tissue culture plates were seeded with HeLa cells or MiaPaCa Cells and allowed to attach overnight. The cells were then treated with camptothecin to induce DNA damage for 8 hrs. Candidate substances or diluent were then added in the presence of nocodozole for 16 hours. Cells were then lysed with buffer from Assay Designs (#80-1114) supplemented with protease inhibitors and frozen overnight. The fresh whole cell lysates were then thawed and added to the ELISA plate with shaking for 3 hours. Between all subsequent steps plates were washed 4 times with PBST. Biotinylated phospho Histone H3 (ser10) detection antibody was added for 1 hour, followed by addition of horseradish peroxidase-linked streptavidin secondary antibody for 1 hour. Color development of the antibody was performed with addition of TMB substrate and incubation for 2 minutes on a plate shaker. Stop solution was added and plates were read with absorbance at 450 nm on a spectrophotometer. EC50 values were calculated by sigmoid curve fitting using a four-parameter analysis.
Under the “Ki” column, data entries in the format of “%” are percent inhibition data where no Ki data is available. Data entry under the “EC50” column with an * are data obtained using Mia Paca-2 cells rather than HeLa cells. Data is not available where noted as n/a.

[1] = Homo sapiens, MIA PaCa-2, Mia Paca-2 cells (entries marked *)
[2] = Homo sapiens, Mia Paca-2 cells (entries marked *)

Clc1ccc2ncc(-c3cncc(N[C@@H]4CCCNC4)n3)n2c1 [Example 5, 6-(6-Chloroimidazo[1,2-a]pyridin-3-yl)-N-[(3R)-piperidin-3-yl]pyrazin-2-amine]
Ki (CHK1 (kinase domain)): 2.49 nM | EC50 (Mia Paca-2 cells; [1]): 18.3 nM

Cc1ncc(N[C@@H]2CCCNC2)nc1-c1cnc2ccccn12 [Example 247, 6-(imidazo[1,2-a]pyridin-3-yl)-5-methyl-N-[(3R)-piperidin-3-yl]pyrazin-2-amine]
Ki (CHK1 (kinase domain)): 192 nM | EC50 (Mia Paca-2 cells; [1]): 1110 nM

Cc1cn2c(-c3cncc(N[C@@H]4CCCN[C@@H]4C)n3)cnc2s1 [Example 161, 6-(2-methylimidazo[2,1-b][1,3]thiazol-5-yl)-N-[(2R,3R)-2-methylpiperidin-3-yl]pyrazin-2-amine]
Ki (CHK1 (kinase domain)): 1.47 nM | EC50 (Mia Paca-2 cells; [2]): 5.66 nM

Cc1cn2c(-c3cncc(N[C@@H]4CCCN[C@@H]4C)n3)cnc2cn1 [Example 285, 6-(6-methylimidazo[1,2-a]pyrazin-3-yl)-N-[(2R,3R)-2-methylpiperidin-3-yl]pyrazin-2-amine]
Ki (CHK1 (kinase domain)): 21.3 nM | EC50 (Mia Paca-2 cells; [2]): 91 nM

CCOc1ccc2c(c1)ncn2-c1cncc(N[C@H]2CN[C@H](COC)C2)n1 [Example 269, 6-(5-ethoxy-1H-benzimidazol-1-yl)-N-[(3R,5S)-5-(methoxymethyl)pyrrolidin-3-yl]pyrazin-2-amine]
Ki (CHK1 (kinase domain)): 9.76 nM | EC50 (Mia Paca-2 cells; [2]): 73 nM

CCOc1ccc2ncn(-c3cncc(N[C@H]4CN[C@H](COC)C4)n3)c2c1 [Example 268, 6-(6-ethoxy-1H-benzimidazol-1-yl)-N-[(3R,5S)-5-(methoxymethyl)pyrrolidin-3-yl]pyrazin-2-amine]
Ki (CHK1 (kinase domain)): 65.8 nM | EC50 (Mia Paca-2 cells; [2]): 1480 nM

Fc1ccc2ncc(-c3cncc(N[C@@H]4CCCNC4)n3)n2c1 [Example 87, 6-(6-fluoroimidazo[1,2-a]pyridin-3-yl)-N-[(3R)-piperidin-3-yl]pyrazin-2-amine]
Ki (CHK1 (kinase domain)): 8.63 nM | EC50 (Mia Paca-2 cells; [1]): 127 nM

Cc1cn2c(-c3cncc(N[C@H]4CN[C@H](CO)C4)n3)cnc2s1 [Example 237, [(2S,4R)-4-{[6-(2-methylimidazo[2,1-b][1,3]thiazol-5-yl)pyrazin-2-yl]amino}pyrrolidin-2-yl]methanol]
Ki (CHK1 (kinase domain)): 2.98 nM | EC50 (Mia Paca-2 cells; [2]): 46.7 nM

CCOc1ccc2c(c1)ncn2-c1cncc(N[C@@H]2CCCNC2)n1 [Example 214, 6-(5-ethoxy-1H-benzimidazol-1-yl)-N-[(3R)-piperidin-3-yl]pyrazin-2-amine]
Ki (CHK1 (kinase domain)): 0.935 nM | EC50 (Mia Paca-2 cells; [2]): 12.2 nM

COC[C@@H]1C[C@@H](Nc2cncc(-c3cnc4ccc(F)cn34)n2)CN1 [Example 266, 6-(6-fluoroimidazo[1,2-a]pyridin-3-yl)-N-[(3R,5S)-5-(methoxymethyl)pyrrolidin-3-yl]pyrazin-2-amine]
Ki (CHK1 (kinase domain)): 78.7 nM | EC50 (Mia Paca-2 cells; [2]): 548 nM

COC[C@@H]1C[C@@H](Nc2cncc(-c3cnn4ccccc34)n2)CN1 [Example 261, N-[(3R,5S)-5-(methoxymethyl)pyrrolidin-3-yl]-6-(pyrazolo[1,5-a]pyridin-3-yl)pyrazin-2-amine]
Ki (CHK1 (kinase domain)): 14.9 nM | EC50 (Mia Paca-2 cells; [2]): 37 nM

CCOC[C@@H]1C[C@@H](Nc2cncc(-c3cnc4cc(OC)ccn34)n2)CN1 [Example 243, N-[(3R,5S)-5-(ethoxymethyl)pyrrolidin-3-yl]-6-(7-methoxyimidazo[1,2-a]pyridin-3-yl)pyrazin-2-amine]
Ki (CHK1 (kinase domain)): 24.8 nM | EC50 (Mia Paca-2 cells; [2]): 172 nM

CC(C)(O)c1ccc2ncc(-c3cncc(N[C@@H]4CCCNC4)n3)n2c1 [Example 232, 2-(3-{6-[(3R)-piperidin-3-ylamino]pyrazin-2-yl}imidazo[1,2-a]pyridin-6-yl)propan-2-ol]
Ki (CHK1 (kinase domain)): 2.6 nM | EC50 (Mia Paca-2 cells; [1]): 100 nM

CCOC[C@@H]1C[C@@H](Nc2cncc(-c3cnc4cc(C)ccn34)n2)CN1 [Example 241, N-[(3R,5S)-5-(ethoxymethyl)pyrrolidin-3-yl]-6-(7-methylimidazo[1,2-a]pyridin-3-yl)pyrazin-2-amine]
Ki (CHK1 (kinase domain)): 45 nM | EC50 (Mia Paca-2 cells; [2]): 201 nM

CCOc1cc2c(cn1)ncn2-c1cncc(N[C@@H]2CCCNC2)n1 [Example 257, 6-(6-ethoxy-1H-imidazo[4,5-c]pyridin-1-yl)-N-[(3R)-piperidin-3-yl]pyrazin-2-amine]
Ki (CHK1 (kinase domain)): 12.6 nM | EC50 (Mia Paca-2 cells; [2]): 166 nM

Nc1ccc2ncc(-c3cncc(N[C@@H]4CCCNC4)n3)n2c1 [Example 233, 3-{6-[(3R)-piperidin-3-ylamino]pyrazin-2-yl}imidazo[1,2-a]pyridin-6-amine]
Ki (CHK1 (kinase domain)): 3.4 nM | EC50 (Mia Paca-2 cells; [1]): 75.5 nM

c1ccn2c(-c3cncc(N[C@H]4CNC[C@H]4C4CC4)n3)cnc2c1 [Example 197, N-[(3R,4R)-4-cyclopropylpyrrolidin-3-yl]-6-(imidazo[1,2-a]pyridin-3-yl)pyrazin-2-amine]
Ki (CHK1 (kinase domain)): 3.05 nM | EC50 (Mia Paca-2 cells; [2]): 4.82 nM

CCOc1ccc2c(c1)ncn2-c1cncc(N[C@@H]2CCNC2)n1 [Example 217, 6-(5-ethoxy-1H-benzimidazol-1-yl)-N-[(3R)-pyrrolidin-3-yl]pyrazin-2-amine]
Ki (CHK1 (kinase domain)): 6.99 nM | EC50 (Mia Paca-2 cells; [2]): 36.4 nM

C[C@@H]1CNC[C@@H]1Nc1cncc(-c2cnn3ccncc23)n1 [Example 253, N-[(3R,4R)-4-methylpyrrolidin-3-yl]-6-(pyrazolo[1,5-a]pyrazin-3-yl)pyrazin-2-amine, acetate salt]
Ki (CHK1 (kinase domain)): 85.6 nM | EC50 (Mia Paca-2 cells; [2]): 1030 nM

COC[C@@H]1C[C@@H](Nc2cncc(-c3cnc4cc(C#N)ccn34)n2)CN1 [Example 188, 3-(6-{[(3R,5S)-5-(methoxymethyl)pyrrolidin-3-yl]amino}pyrazin-2-yl)imidazo[1,2-a]pyridine-7-carbonitrile]
Ki (CHK1 (kinase domain)): 57.8 nM | EC50 (Mia Paca-2 cells; [2]): 663 nM

Oc1ccn2c(-c3cncc(N[C@@H]4CCCNC4)n3)cnc2c1 [Example 137, 3-{6-[(3R)-piperidin-3-ylamino]pyrazin-2-yl}imidazo[1,2-a]pyridin-7-ol]
Ki (CHK1 (kinase domain)): 2.4 nM | EC50 (Mia Paca-2 cells; [1]): 256 nM

C[C@H]1NCCC[C@H]1Nc1cncc(-c2cnn3ccncc23)n1 [Example 252, N-[(2R,3R)-2-methylpiperidin-3-yl]-6-(pyrazolo[1,5-a]pyrazin-3-yl)pyrazin-2-amine, acetate salt]
Ki (CHK1 (kinase domain)): 69.3 nM | EC50 (Mia Paca-2 cells; [2]): 1110 nM

C[C@H]1NCCC[C@H]1Nc1cncc(-c2cnc3ccc(Cl)cn23)n1 [Example 226, 6-(6-chloroimidazo[1,2-a]pyridin-3-yl)-N-[(2R,3R)-2-methylpiperidin-3-yl]pyrazin-2-amine]
Ki (CHK1 (kinase domain)): 4.6 nM | EC50 (Mia Paca-2 cells; [1]): 7.17 nM

COc1ccc2ncc(-c3cncc(N[C@@H]4CCCNC4)n3)n2c1 [Example 7, 6-(6-Methoxyimidazo[1,2-a]pyridin-3-yl)-N-[(3R)-piperidin-3-yl]pyrazin-2-amine]
Ki (CHK1 (kinase domain)): 1.65 nM | EC50 (Mia Paca-2 cells; [2]): 16.7 nM

Fc1ccn2c(-c3cncc(N[C@@H]4CCCNC4)n3)cnc2c1 [Example 235, 6-(7-fluoroimidazo[1,2-a]pyridin-3-yl)-N-[(3R)-piperidin-3-yl]pyrazin-2-amine]
Ki (CHK1 (kinase domain)): 6.8 nM | EC50 (Mia Paca-2 cells; [1]): 67.9 nM

COc1ccn2c(-c3cncc(N[C@@H]4C5CCN(CC5)[C@@H]4C)n3)cnc2c1 [Example 19, (2R,3R)—N-[6-(7-methoxyimidazo[1,2-a]pyridin-3-yl)pyrazin-2-yl]-2-methyl-1-azabicyclo[2.2.2]octan-3-amine]
Ki (CHK1 (kinase domain)): 167 nM | EC50 (Mia Paca-2 cells; [2]): 10000 nM

FC[C@@H]1CNC[C@@H]1Nc1cncc(-c2cnc3ccccn23)n1 [Example 130, N-[(3R,4R)-4-(fluoromethyl)pyrrolidin-3-yl]-6-imidazo[1,2-a]pyridin-3-ylpyrazin-2-amine]
Ki (CHK1 (kinase domain)): 4.86 nM | EC50 (Mia Paca-2 cells; [2]): 139 nM

COC[C@@H]1C[C@@H](Nc2cncc(-c3cnc4cc(C)ccn34)n2)CN1 [Example 239, N-[(3R,5S)-5-(methoxymethyl)pyrrolidin-3-yl]-6-(7-methylimidazo[1,2-a]pyridin-3-yl)pyrazin-2-amine]
Ki (CHK1 (kinase domain)): 72.2 nM | EC50 (Mia Paca-2 cells; [2]): 201 nM

CO[C@H]1CCNC[C@@H]1Nc1cncc(-c2cnc3ccccn23)n1 [Example 259, 6-(imidazo[1,2-a]pyridin-3-yl)-N-[(3S,4S)-4-methoxypiperidin-3-yl]pyrazin-2-amine]
Ki (CHK1 (kinase domain)): 3.82 nM | EC50 (Mia Paca-2 cells; Mia Paca-2 cells (entries marked *)): 38.8 nM

COc1ccn2c(-c3cncc(N[C@H]4C5CCN(CC5)[C@H]4C)n3)cnc2c1 [Example 265, (2S,3S)-N-[6-(7-methoxyimidazo[1,2-a]pyridin-3-yl)pyrazin-2-yl]-2-methyl-1-azabicyclo[2.2.2]octan-3-amine]
Ki (CHK1 (kinase domain)): 5.37 nM | EC50 (Mia Paca-2 cells; [2]): 244 nM
